Entries after “also recorded” stand apart in the source; their conditions may differ.
Assays:
[1] = system: human prostate carcinoma epithelial 22Rv1 cells; test: Trypan blue growth count of 22Rv1 cells; format: cell-based; settings: versus Cyclopamine, Vismodegib, LDE-225
Protocol: (§1) After the indicated times, a trypan blue count was performed to determine the growth rate. […] Results were normalized to endogenous control (β-actin and HPRT).
(§2) Cell proliferation was evaluated by BrdU detection (Roche, Welwyn Garden City, UK). Briefly, after the BrdU pulse (24 h for GCPs) cells were fixed with 4% paraformaldehyde and permeabilized with 0.2% Triton X-100, and BrdU detection was performed according to the manufacturer's instructions. Nuclei were counterstained with Hoechst reagent. At least 500 nuclei were counted in triplicate, and the number of BrdU-positive nuclei was recorded. To determine the growth rate of viable cells, a trypan blue count was performed after a treatment period of 24–48–72 h with studied compound.

Gli1 mRNA [2] = test: Gli1 mRNA (qRT-PCR) in primary MB cells from Ptch1+/− mice; format: cell-based, mouse; settings: ex vivo cultures from Ptch1^+/− mice MBs
Protocol: (§3) Total RNA was isolated with Trizol (Invitrogen/Life Technologies, Carlsbad, CA, USA) and reverse transcribed with SensiFAST cDNA Synthesis Kit (Bioline Reagents Limited, London, UK). Quantitative real-time PCR (Q-PCR) analysis of Gli1, Gli2, Ptch1, Bmp2, Pfkfb3, CycD1, CycD2, Pcna, Oct4, Nanog, β-2 microglobulin, β-actin and HPRT mRNA expression was performed on each cDNA sample using the VIIA7 Real Time PCR System employing Assay-on-Demand Reagents (Life Technologies).

[3] = system: Hh pathway readouts, stemness markers and growth genes in MB stem-like cells; test: qRT-PCR of Hh, proliferation and stemness targets in MB stem-like cells; format: cell-based, mouse; settings: 48 h
Protocol: Figure 5 Compound 12 inhibition of Hh-dependent MB tumor cell growth. […] (a and b) After the indicated times, a trypan blue count was performed to determine the growth rate of viable cells. (c) Gli1 mRNA expression levels were determined by qRT-PCR normalized to endogenous control (β2-microglobulin and HPRT). (d–f) Compound 12 inhibits MB-SCs self-renewal. (d) Suspension of single MB-SCs isolated from Ptch1^+/− mice were cultured in stem cell medium to allow the formation of primary neurospheres. Primary neurospheres were dissociated and treated with increasing concentrations of compound 12, Cyclopamine or DMSO only. After 7 days of treatment, the number of secondary neurospheres derived from a known number of single cells was counted. The self-renewal MB-SCs' capability is expressed as percentage of neurosphere-forming cells. […]
as §3, with “Technologies). […]” for “Technologies).”

Gli1 mRNA [4] = test: Gli1 mRNA (qRT-PCR) in ASZ001 BCC cells; format: cell-based, mouse; settings: after drug treatment
Protocol: After the indicated times, a trypan blue count was performed to determine the growth rate.
as §3

AP1/Jun pathway = test: AP1/Jun luciferase reporter assay (MMP1-luciferase reporter and c-Jun) in MEFs WT; format: cell-based, mouse; settings: increasing concentrations, 24 h
Protocol: (§4) Figure 2 Compound 12 inhibits Hh signaling without affecting AP1/Jun and WNT/β-Catenin pathways. (a) The graphs show the Hh target genes expression levels in Ptch1^−/− MEFs treated for 48 h with 12 or DMSO as control. mRNA levels were determined by quantitative real-time PCR (qRT-PCR) normalized to endogenous control (β2-microglobulin and HPRT). Pfkfb3 gene was used as negative control. *P<0.05 versus CTR. (b and c) AP1/Jun and WNT/β-Catenin pathways activity were assayed in MEFs WT transfected with MMP1-luciferase reporter and c-Jun (b) or Top Flash-luciferase reporter and β-Catenin (c), respectively, in the presence or absence of increasing concentrations of compound 12. Treatment time was 24 h, and normalization was against Renilla luciferase.

Gli1 mRNA [5] = test: Gli1 mRNA (qRT-PCR) in 22Rv1 cells; format: cell-based, human; settings: after treatment
Protocol: as §1, §3

[6] = system: primary MB cells from Ptch1^+/− mice; test: Trypan blue growth count of primary MB cells from Ptch1+/− mice; format: cell-based, mouse; settings: ex vivo cultures from Ptch1^+/− mice MBs
Protocol: as §2

WNT/β-Catenin pathway = test: WNT/β-Catenin luciferase reporter assay (Top Flash-luciferase and β-Catenin) in MEFs WT; format: cell-based, mouse; settings: increasing concentrations, 24 h
Protocol: as §4

[7] = system: Hh target genes in SuFu^−/− MEFs; test: qRT-PCR of endogenous Hh target genes in SuFu−/− MEFs; format: cell-based, mouse; settings: 48 h
Protocol: as §3

[8] = system: Hh target genes (Gli1 and others) in Ptch1^−/− MEFs; test: qRT-PCR of endogenous Hh target genes in Ptch1−/− MEFs; format: cell-based, mouse; settings: 5 μM, 48 h
Excerpt: For this reason, we focused further studies only on 12. To investigate the inhibitory properties of 12 on Hh pathway, we analyzed endogenous Hh target gene activation in genetically defined Ptch1^−/− mouse embryonic fibroblasts (Ptch1^−/− MEFs) (Figure 2a). In these cells, constitutive activation of the Hh pathway is the consequence of the loss of repressive receptor Ptch1 gene, thus determining high expression levels of Hh target.
Figure 2 Compound 12 inhibits Hh signaling without affecting AP1/Jun and WNT/β-Catenin pathways. (a) The graphs show the Hh target genes expression levels in Ptch1^−/− MEFs treated for 48 h with 12 or DMSO as control. mRNA levels were determined by quantitative real-time PCR (qRT-PCR) normalized to endogenous control (β2-microglobulin and HPRT). Pfkfb3 gene was used as negative control. *P<0.05 versus CTR. […]
as §3, with “Technologies). […]” for “Technologies).”

Q: For COc1ccc(C=CC(=O)c2cc(OC)c(OC)cc2OC)cc1OC [Compound 12, 3-(3,4-dimethoxy-phenyl)-1-(2,4,5-trimethoxy-phenyl)-2-propen-1-one], which “inhibition of 22Rv1 cell proliferation” value [1] is on record?
A: Its value is “higher activity than other Smo antagonists”.

Q: What about the “Gli1 mRNA levels in primary MB cells” value (Gli1 mRNA [2]) of the same compound?
A: Its value is “decrease of Gli1 mRNA levels”.

Q: What about the “Hh pathway activity in MB stem-like cells (Gli1, Gli2, Ptch1, Nanog, Oct4, cyclins D1 and D2, Pcna mRNAs)” value [3] of the same compound?
A: Its value is “reduced Hh pathway activity”.

Q: And the “Gli1 mRNA levels in ASZ001 BCC cells” value (Gli1 mRNA [4])?
A: Its value is “decrease of Gli1 mRNA levels”.

Q: And the “luciferase activity driven by Jun/AP1 signaling” value (AP1/Jun pathway)?
A: Its value is “without affecting luciferase activity; also recorded: inactive”.

Q: What about the “Gli1 mRNA levels in 22Rv1 cells” value (Gli1 mRNA [5]) of the same compound?
A: Its value is “significant decrease of Gli1 mRNA levels”.

Q: And the “proliferation of primary MB cells” value [6]?
A: The value was “significant inhibition of the proliferation”.

Q: What about the “luciferase activity driven by Wnt/β-catenin signaling” value (WNT/β-Catenin pathway) of the same compound?
A: The value was “without affecting luciferase activity; also recorded: inactive”.

Q: What about the “expression of endogenous Hh target genes in SuFu^−/− MEFs” value [7] of the same compound?
A: Its value is “suppressed the expression of endogenous Hh target genes”.

Q: What about the “mRNA levels of endogenous Hh target genes, including Gli1” value [8] of the same compound?
A: The value was “significantly reduced”.

Source: publication PMC5059851, “Inhibition of Hedgehog-dependent tumors and cancer stem cells by a newly identified naturally occurring chemotype” (Cell Death & Disease, 2016)
